The results in this text go back to patent US9206200B2, “N-linked lactam M1 receptor positive allosteric mogulators” (Merck Sharp & Dohme Corp., priority 2011, dated 2015).

pEC50: −log10 of the molar value.

One experiment deals with T1, acetylcholine muscarinic M1 receptor (Homo sapiens, UniProt P11229).
T1 construct: expressed in transfected cells; host or cells: CHOnfat cells (CHO cells with an NFAT reporter) expressing hM1, kept under Geneticin selection
T1 sequence (P11229 1-460): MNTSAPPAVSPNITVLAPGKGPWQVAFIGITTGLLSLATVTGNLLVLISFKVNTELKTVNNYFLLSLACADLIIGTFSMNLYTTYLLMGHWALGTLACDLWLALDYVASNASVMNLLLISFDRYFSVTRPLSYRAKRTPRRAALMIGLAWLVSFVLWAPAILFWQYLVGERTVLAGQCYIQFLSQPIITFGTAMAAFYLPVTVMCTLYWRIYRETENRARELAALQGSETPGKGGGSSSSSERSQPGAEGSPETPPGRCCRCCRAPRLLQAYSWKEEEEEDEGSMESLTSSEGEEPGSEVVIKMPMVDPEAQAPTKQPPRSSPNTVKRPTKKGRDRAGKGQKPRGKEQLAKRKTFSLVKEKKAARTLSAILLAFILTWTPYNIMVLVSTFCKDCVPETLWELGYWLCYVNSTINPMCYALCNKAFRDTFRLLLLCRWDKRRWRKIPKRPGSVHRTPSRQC
Briefly: muscarinic FLIPR assay: intracellular calcium in CHOnfat/hM1 cells, potentiation of EC20 acetylcholine. The experiment is classed as cell-based. Particulars: Table 1; CHOnfat/hM1 cells, FLIPR, EC20 acetylcholine (3 nM final); read-out: M1 Pot. Here is the method: The assay studies the effect of one or several concentrations of test compounds on basal or acetylcholine-stimulated Ca^2+ levels using FLIPR.
Compounds are prepared and subjected to a preincubation period of […]. Thereafter, a single EC20 concentration of acetylcholine is added to each well (3 nM final). The intracellular Ca^2+ level of each sample is measured and compared to an acetylcholine control to determine any modulatory activity.
Cells: CHOnfat/hM1, hM2, hM3 or hM4 cells are plated 24 hr before the assay at a density of 18,000 cells/well (100 μL) in a 384 well plate. CHOnfat/hM1 and CHOnfat/hM3 Growth Medium: 90% DMEM (Hi Glucose); 10% HI FBS; 2 mM L-glutamine; 0.1 mM NEAA; Pen-Strep; and 1 mg/ml Geneticin, are added. For M2Gqi5CHOnfat and M4Gqi5CHOnfat cells, an additional 600 ug/ml hygromycin is added.
Equipment: 384 well plate, 120 μl, addition plate; 96-well Whatman 2 ml Uniplate Incubator, 37° C., 5% CO2; Skatron EMBLA-384 Plate Washer; Multimek Pipetting System; Genesis Freedom 200 System; Mosquito System; Temo Nanolitre Pipetting System; and FLIPR^384 Fluorometric Imaging Plate Reader System are used.
Buffers. Assay Buffer: Hanks Balanced Salt Solution, with 20 mM Hepes, 2.5 mM Probenecid (Sigma P-8761) first dissolved in 1 N NaOH, 1% Bovine Serum Albumin (Sigma A-9647). Dye Loading Buffer: Assay Buffer plus 1% Fetal Bovine Serum and Fluo-4AM/Pluronic Acid Mixture. 2 mM Fluo-4AM ester stock in DMSO (Molecular Probes F-14202) Concentration of 2 μM in buffer for a final concentration of 1 μM in Assay. 20% Pluronic Acid Solution stock, with concentration of 0.04% in Buffer, 0.02% in Assay.
65 μL of 2 mM Fluo-4AM are mixed with 130 μL of 20% Pluronic Acid. The resulting solution and 650 μL FBS is added to the assay buffer for a total volume of 65 mL. Positive Controls: 4-Br-A23187: 10 mM in DMSO; final concentration 10 μM. Acetylcholine: 10 mM in water, working stock at both 20 μM and 30 μM in assay buffer, final concentration of 10 μM. This is used to check the maximum stimulation of the CHOK1/hM1 cells. 20 μM (2×) acetylcholine is added in the preincubation part of the assay, and the 30 μM (3×) stock is added in the second part. (EC20)Acetylcholine: 10 mM in water, working stock of 9 nM (3×), and final concentration in assay is 3 nM. This is used after the preincubation with test compounds. Addition of the EC20 Acetylcholine to each well with a test compound will ascertain any modulator activity. 24 wells contain 3 nM Acetylcholine alone as a control.
Determining Activity of Putative Compounds:
Screening Plate Compounds are titrated in 96-well plates (columns 2-11), 100% DMSO, started at a concentration of 15 mM (150× stock concentration), and 3-fold serial dilutions using Genesis Freedom200 System. Four 96-well plates are combined into a 384-well plate using Mosquito Nanolitre Pipetting System by transferring 1 μl of serial diluted compounds to each well, and 1 mM acetylcholine (100× stock concentration) were added as a control. Using Temo, 49 μl assay buffer is added to each well of the 384-well plate right before assay.
In a 96-well Whatman 2 ml Uniplate, 9 nM Acetylcholine (3×) is pipetted into wells corresponding to the screening compounds, and into control wells. The 30 μM acetylcholine control (3×) is added into control wells, and the 3× agonist plate is transferred into a 384 well plate.
Cells are washed three times with 100 μL of buffer, leaving […] of buffer in each well. Using Multimek, 30 μL of Dye Loading Buffer is added into each well and incubated at 37° C., 5% CO2 for up to one hr.
After 60 min, the cells are washed three times with 100 μL of buffer, leaving 30 μL of buffer in each well. The cell plate, screening plate, and agonist addition plates are placed on the platform in the FLIPR and the door closed. A signal test to check background fluorescence and basal fluorescence signal is performed. Laser intensity is adjusted if necessary.
(In general: A change in cytosolic calcium serves as a functional read-out for many receptors and channels.)
`CC1c2c(cc(CN3CCN(c4ccccc4)CC3)c3ccccc23)C(=O)N1[C@@H]1CCCC[C@@H]1O` (stereo partly drawn) [Example 73, 2-[(1R,2S)-2-hydroxycyclohexyl]-1-methyl-5-[(4-phenylpiperazin-1-yl)methyl]-1,2-dihydro-3H-benzo[e]isoindol-3-one]: the pEC50 was 6.70.
On to `O=C1c2cc(CN3CCN(c4cccnc4)CC3)c3ccccc3c2CN1[C@H]1CCCC[C@@H]1O` [Example 76, 2-[(1S,2S)-2-hydroxycyclohexyl]-5-[(4-pyridin-3-ylpiperazin-1-yl)methyl]-1,2-dihydro-3H-benzo[e]isoindol-3-one], for which the pEC50 is 7.43.
Same read-out and setting: as for `O=C1c2cc(CN3CCN(c4ccncc4)CC3)c3ccccc3c2CN1[C@H]1CCCC[C@@H]1O` [Example 77, 2-[(1S,2S)-2-hydroxycyclohexyl]-5-[(4-pyridin-4-ylpiperazin-1-yl)methyl]-1,2-dihydro-3H-benzo[e]isoindol-3-one], the figure is 6.67; as for `N#CC1(c2ccccc2)CCN(Cc2cc3c(c4ccccc24)CN([C@H]2CCCC[C@@H]2O)C3=O)CC1` [Example 56, 1-({2-[(1S,2S)-2-hydroxycyclohexyl]-3-oxo-2,3-dihydro-1H-benzo[e]isoindol-5-yl}methyl)-4-phenylpiperidine-4-carbonitrile], 7.08.
With `CC1CCN(Cc2cc3c(c4ccccc24)CN([C@H]2CCCC[C@@H]2O)C3=O)CC1` [Example 21, 2-[(1S,2S)-2-hydroxycyclohexyl]-5-[(4-methylpiperidin-1-yl)methyl]-1,2-dihydro-3H-benzo[e]isoindol-3-one], the pEC50 was 5.82.
On the same count and under the same terms, as for `O=C1c2cc(CN3CCC(F)(F)C3)c3ccccc3c2CN1C1CCCCC1O` (stereo not drawn) [Example 33, 5-[(3,3-difluoropyrrolidin-1-yl)methyl]-2-(2-hydroxycyclohexyl)-1,2-dihydro-3H-benzo[e]isoindol-3-one], the figure is 6.62.
With `O=C1c2cc(CN3CC[C@H](F)C3)c3ccccc3c2CN1C1CCCCC1O` (stereo partly drawn) [Example 32, 5-{[(3S)-3-fluoropyrrolidin-1-yl]methyl}-2-(2-hydroxycyclohexyl) 1,2-dihydro-3H-benzo[e]isoindol-3-one], the pEC50 was 5.74.
For `O=C1c2cc(CN3CC(O)C(F)C3)c3ccccc3c2CN1C1CCCCC1O` (stereo not drawn) [Example 28, 5-[(3-fluoro-4-hydroxypyrrolidin-1-yl)methyl]-2-(2-hydroxycyclohexyl)-1,2-dihydro-3H-benzo[e]isoindol-3-one], the pEC50 was 5.92.
On the same count and under the same terms, next, `O=C1c2cc(CN3CCOCC3)c3ccccc3c2CN1C1CCCCC1O` (stereo not drawn) [Example 24, 2-(2-hydroxycyclohexyl)-5-(morpholin-4-ylmethyl)-1,2-dihydro-3H-benzo[e]isoindol-3-one]: 6.82; `O=C1c2cc(CN3CCN(CC(F)(F)F)CC3)c3ccccc3c2CN1C1CCCCC1O` (stereo not drawn) [Example 34, 2-(2-hydroxycyclohexyl)-5-{[4-(2,2,2-trifluoroethyl)piperazin-1-yl]methyl}-1,2-dihydro-3H-benzo[e]isoindol-3-one]: 5.72.

Still in this experiment, the particulars now being: Table 2; CHOnfat/hM1 cells, FLIPR, EC20 acetylcholine (3 nM final); read-out: M1 Pot.
Turning to `CCN(CC)Cc1cc2c(c3ncccc13)CN(C1CCCCC1O)C2=O` (stereo not drawn) [Example 88, 5-[(diethylamino)methyl]-8-(2-hydroxycyclohexyl)-8,9-dihydro-7H-pyrrolo[3,4-h]quinolin-7-one], the pEC50 is 5.40.
Consider `O=C1c2cc(CN3CCN(c4ccccn4)CC3)c3cccnc3c2CN1C1CCCCC1O` (stereo not drawn) [Example 165, 8-(2-hydroxycyclohexyl)-5-[(4-pyridin-2-ylpiperazin-1-yl)methyl]-8,9-dihydro-7H-pyrrolo[3,4-h]quinolin-7-one], for which the pEC50 is 7.82.
On the same count and under the same terms, next, `N#CC1CCN(Cc2cc3c(c4ncccc24)CN([C@H]2CCCC[C@@H]2O)C3=O)CC1` [Example 94, 1-({8-[(1S,2S)-2-hydroxycyclohexyl]-7-oxo-8,9-dihydro-7H-pyrrolo[3,4-h]quinolin-5-yl}methyl)piperidine-4-carbonitrile]: 7.29.
Still for that read-out and setting: as for `CC1c2c(cc(CN3CCC(F)CC3)c3cccnc23)C(=O)N1[C@H]1CCCC[C@@H]1O` (stereo partly drawn) [Example 93, 5-[(4-fluoropiperidin-1-yl)methyl]-8-[(1S,2S)-2-hydroxycyclohexyl]-9-methyl-8,9-dihydro-7H-pyrrolo[3,4-h]quinolin-7-one], the figure is 7.15; as for `CCC1c2c(cc(CN3CCC(F)(C#N)CC3)c3cccnc23)C(=O)N1[C@@H]1CCCC[C@@H]1O` (stereo partly drawn) [Example 120, 1-({9-ethyl-8-[(1R,2S)-2-hydroxycyclohexyl]-7-oxo-8,9-dihydro-7H-pyrrolo[3,4-h]quinolin-5-yl}methyl)-4-fluoropiperidine-4-carbonitrile], 7.68; as for `O=C1c2cc(CN3CCC(O)CC3)c3cccnc3c2CN1C1CCCCC1O` (stereo not drawn) [Example 89, 8-(2-hydroxycyclohexyl)-5-[(4-hydroxypiperidin-1-yl)methyl]-8,9-dihydro-7H-pyrrolo[3,4-h]quinolin-7-one], 6.54.
Turning to `N#CC1(F)CCN(Cc2cc3c(c4ncccc24)CN([C@H]2CCCC[C@@H]2O)C3=O)CC1` [Example 117, 4-fluoro-1-({8-[(1S,2S)-2-hydroxycyclohexyl]-7-oxo-8,9-dihydro-7H-pyrrolo[3,4-h]quinolin-5-yl}methyl)piperidine-4-carbonitrile], the pEC50 is 7.42.
With `CC1c2c(cc(CN3CCC(c4ccccc4)CC3)c3cccnc23)C(=O)N1C1CCCCC1O` (stereo not drawn) [Example 141, 8-(2-hydroxycyclohexyl)-9-methyl-5-[(4-phenylpiperidin-1-yl)methyl]-8,9-dihydro-7H-pyrrolo[3,4-h]quinolin-7-one], the pEC50 is 6.31.
Still for that read-out and setting: as for `CC1c2c(cc(CN3CCN(c4ccccn4)CC3)c3cccnc23)C(=O)N1C1CCCCC1O` (stereo not drawn) [Example 167, 8-(2-hydroxycyclohexyl)-9-methyl-5-[(4-pyridin-2-ylpiperazin-1-yl)methyl]-8,9-dihydro 7H-pyrrolo[3,4-h]quinolin-7-one], the figure is 7.23; as for `N#CC1(F)CCN(Cc2cc3c(c4ncccc24)CN(c2cccc(O)c2)C3=O)CC1` [Example 127, 4-fluoro-1-{[8-(3-hydroxyphenyl)-7-oxo-8,9-dihydro-7H-pyrrolo[3,4-h]quinolin-5-yl]methyl}piperidine-4-carbonitrile], 7.36; as for `O=C1c2cc(CN3CCCC3)c3cccnc3c2CN1C1CCCCC1O` (stereo not drawn) [Example 97, 8-(2-hydroxycyclohexyl)-5-(pyrrolidin-1-ylmethyl)-8,9-dihydro-7H-pyrrolo[3,4-h]quinolin-7-one], 5.28.
